The target of this assay is T1, crosslinked smooth muscle actomyosin (chicken gizzard smooth muscle myosin subfragment-1 crosslinked to cardiac or skeletal actin) (Gallus gallus, UniProt P10587).
T1 construct: chicken gizzard smooth muscle myosin subfragment-1; from tissue; host or cells: chicken gizzard
As to the kind of experiment: Lead optimization pyruvate kinase/horseradish peroxidase/pyruvate oxidase-coupled ATPase assay (compound dose response). In kind it is biochemical. The settings on record: read-out: IC50 Arithmetic Mean. An outline of the steps:
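IC50 is the midpoint of a 4-parameter dose–response fit of Amplex Red fluorescence (480/615 nm). Buffer was 12 mM potassium PIPES pH 7.00 at 22 °C with 100 mM KCl, 2 mM MgCl2, 0.15 mM ATP and 2 mM phosphate, with PK/pyruvate oxidase/HRP coupling. Enzyme: smooth muscle myosin S1 crosslinked to cardiac or skeletal actin, dosed empirically by activity.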

Turning to `CCc1ccc(NC(=O)OCC2(C(=O)NCc3ccccc3Cl)CCCN(C(=O)CO)C2)cc1` (stereo not drawn) [N-[(2-chlorophenyl)methyl](3-{[N-(4-ethylphenyl)carbamoyloxy]methyl}-1-(2-hydroxyacetyl)(3-piperidyl))carboxamide], the IC50 (usually the concentration at which inhibition is half-maximal) was found to be 399 nM. On to `N#Cc1ccccc1NC(=O)OCC1(C(=O)NCc2ccccc2Cl)CCOCC1` [N-[(2-chlorophenyl)methyl](4-{[N-(2-cyanophenyl)carbamoyloxy]methyl}(2H-3,4,5,6-tetrahydropyran-4-yl))carboxamide], for which the IC50 was 17000 nM.

In the case of `Cc1ccc(NC(=O)OCC2(C(=O)NCc3ccccc3Cl)CCOCC2)cc1F` [N-[(2-chlorophenyl)methyl](4-{[N-(3-fluoro-4-methylphenyl)carbamoyloxy]methyl}(2H-3,4,5,6-tetrahydropyran-4-yl))carboxamide], the IC50 turned out to be 2210 nM. The same measure for `COc1cccc(NC(=O)OCC2(C(=O)NCc3ccccc3Cl)CCOCC2)c1` [N-[(2-chlorophenyl)methyl](4-{[N-(3-methoxyphenyl)carbamoyloxy]methyl}(2H-3,4,5,6-tetrahydropyran-4-yl))carboxamide]: 19000 nM; for `CCc1ccc(N(C)C(=O)OCC2(C(=O)NCc3ccccc3Cl)CCOCC2)cc1` [N-[(2-chlorophenyl)methyl](4-{[N-(4-ethylphenyl)-N-methylcarbamoyloxy]methyl}(2H-3,4,5,6-tetrahydropyran-4-yl))carboxamide]: 7630 nM. The same measure for `CCc1ccc(NC(=O)OCC2(C(=O)NCc3ccccc3Cl)CCOCC2)cc1` [N-[(2-chlorophenyl)methyl](4-{[N-(4-ethylphenyl)carbamoyloxy]methyl}(2H-3,4,5,6-tetrahydropyran-4-yl))carboxamide]: 197 nM; for `CCc1ccc(NC(=O)OCC2(C(=O)NCc3ccccc3Cl)CCNCC2)cc1` [N-[(2-chlorophenyl)methyl](4-{[N-(4-ethylphenyl)carbamoyloxy]methyl}(4-piperidyl))carboxamide]: 1660 nM.

Consider `CCc1ccc(NC(=O)OCC2(C(=O)NCc3ccccc3Cl)CCN(C(=O)CO)CC2)cc1` [N-[(2-chlorophenyl)methyl](4-{[N-(4-ethylphenyl)carbamoyloxy]methyl}-1-(2-hydroxyacetyl)(4-piperidyl))carboxamide], for which the IC50 was 173 nM. The same measure for `CCc1ccc(NC(=O)OCC2(C(=O)NCc3ccccc3Cl)CCN(CCO)CC2)cc1` [N-[(2-chlorophenyl)methyl](4-{[N-(4-ethylphenyl)carbamoyloxy]methyl}-1-(2-hydroxyethyl)(4-piperidyl))carboxamide]: 4040 nM; for `CCc1ccc(NC(=O)OCC2(C(=O)NCc3ccccc3Cl)CCN(C(=O)COC)CC2)cc1` [N-[(2-chlorophenyl)methyl](4-{[N-(4-ethylphenyl)carbamoyloxy]methyl}-1-(2-methoxyacetyl)(4-piperidyl))carboxamide]: 486 nM. The same measure for `CCc1ccc(NC(=O)OCC2(C(=O)NCc3ccccc3Cl)CCN(C(=O)c3ccccn3)CC2)cc1` [N-[(2-chlorophenyl)methyl](4-{[N-(4-ethylphenyl)carbamoyloxy]methyl}-1-(2-pyridylcarbonyl)(4-piperidyl))carboxamide]: 757 nM; for `CCc1ccc(NC(=O)OCC2(C(=O)NCc3ccccc3Cl)CCN(C(=O)CCOC)CC2)cc1` [N-[(2-chlorophenyl)methyl](4-{[N-(4-ethylphenyl)carbamoyloxy]methyl}-1-(3-methoxypropanoyl)(4-piperidyl))carboxamide]: 606 nM. `CCc1ccc(NC(=O)OCC2(C(=O)NCc3ccccc3Cl)CCN(C(=O)c3cccnc3)CC2)cc1` [N-[(2-chlorophenyl)methyl](4-{[N-(4-ethylphenyl)carbamoyloxy]methyl}-1-(3-pyridylcarbonyl)(4-piperidyl))carboxamide]: the half-inhibitory concentration (IC50) turned out to be 695 nM.

On to `CCc1ccc(NC(=O)OCC2(C(=O)NCc3ccccc3Cl)CCN(C(=O)CCCO)CC2)cc1` [N-[(2-chlorophenyl)methyl](4-{[N-(4-ethylphenyl)carbamoyloxy]methyl}-1-(4-hydroxybutanoyl)(4-piperidyl))carboxamide], for which the IC50 came to 492 nM.

With `CCc1ccc(NC(=O)OCC2(C(=O)NCc3ccccc3Cl)CCN(C(=O)C3CCNCC3)CC2)cc1` [N-[(2-chlorophenyl)methyl](4-{[N-(4-ethylphenyl)carbamoyloxy]methyl}-1-(4-piperidylcarbonyl)(4-piperidyl))carboxamide], the IC50 was 808 nM.

For the compound `CCc1ccc(NC(=O)OCC2(C(=O)NCc3ccccc3Cl)CCN(C(=O)NC)CC2)cc1` [N-[(2-chlorophenyl)methyl](4-{[N-(4-ethylphenyl)carbamoyloxy]methyl}-1-(N-methylcarbamoyl)(4-piperidyl))carboxamide], the IC50 is 302 nM.

For `CCc1ccc(NC(=O)OCC2(C(=O)NCc3ccccc3Cl)CCN(C(=O)c3ncc[nH]3)CC2)cc1` [N-[(2-chlorophenyl)methyl](4-{[N-(4-ethylphenyl)carbamoyloxy]methyl}-1-(imidazol-2-ylcarbonyl)(4-piperidyl))carboxamide], the IC50 is 394 nM. To `CCc1ccc(NC(=O)OCC2(C(=O)NCc3ccccc3Cl)CCN(S(C)(=O)=O)CC2)cc1` [N-[(2-chlorophenyl)methyl](4-{[N-(4-ethylphenyl)carbamoyloxy]methyl}-1-(methylsulfonyl)(4-piperidyl))carboxamide] belongs 496 nM; to `CCc1ccc(NC(=O)OCC2(C(=O)NCc3ccccc3Cl)CCN(C(=O)C3COCCN3)CC2)cc1` (stereo not drawn) [N-[(2-chlorophenyl)methyl](4-{[N-(4-ethylphenyl)carbamoyloxy]methyl}-1-(morpholin-3-ylcarbonyl)(4-piperidyl))carboxamide], 515 nM; to `CCc1ccc(NC(=O)OCC2(C(=O)NCc3ccccc3Cl)CCN(C(=O)c3ccccc3)CC2)cc1` [N-[(2-chlorophenyl)methyl](4-{[N-(4-ethylphenyl)carbamoyloxy]methyl}-1-(phenylcarbonyl)(4-piperidyl))carboxamide], 412 nM. In the case of `CCc1ccc(NC(=O)OCC2(C(=O)NCc3ccccc3Cl)CCN(C(=O)CNC)CC2)cc1` [N-[(2-chlorophenyl)methyl](4-{[N-(4-ethylphenyl)carbamoyloxy]methyl}-1-[2-(methylamino)acetyl](4-piperidyl))carboxamide], the half-maximal inhibitory concentration (IC50) amounted to 213 nM. The same measure for `CCc1ccc(NC(=O)OCC2(C(=O)NCc3ccccc3Cl)CCN(C(=O)C(C)NC)CC2)cc1` (stereo not drawn) [N-[(2-chlorophenyl)methyl](4-{[N-(4-ethylphenyl)carbamoyloxy]methyl}-1-[2-(methylamino)propanoyl](4-piperidyl))carboxamide]: 1780 nM; for `CCc1ccc(NC(=O)OCC2(C(=O)NCc3ccccc3Cl)CCN(C(=O)C(C)(CO)CO)CC2)cc1` [N-[(2-chlorophenyl)methyl](4-{[N-(4-ethylphenyl)carbamoyloxy]methyl}-1-[3-hydroxy-2-(hydroxymethyl)-2-methylpropanoyl](4-piperidyl))carboxamide]: 275 nM; for `CCc1ccc(NC(=O)OCC2(C(=O)NCc3ccccc3Cl)CCN(Cc3ccccc3)CC2)cc1` [N-[(2-chlorophenyl)methyl](4-{[N-(4-ethylphenyl)carbamoyloxy]methyl}-1-benzyl(4-piperidyl))carboxamide]: 14400 nM. The same measure for `CCc1ccc(NC(=O)OCC2(C(=O)NCc3ccccc3Cl)CCN(C)CC2)cc1` [N-[(2-chlorophenyl)methyl](4-{[N-(4-ethylphenyl)carbamoyloxy]methyl}-1-methyl(4-piperidyl))carboxamide]: 4930 nM; for `CCc1ccc(NC(=O)OCC2(C(=O)NCc3ccccc3Cl)CCN(C(=O)c3ccc(C(=O)c4ccccc4)cc3)CC2)cc1` [N-[(2-chlorophenyl)methyl](4-{[N-(4-ethylphenyl)carbamoyloxy]methyl}-1-{[4-(phenylcarbonyl)phenyl]carbonyl}(4-piperidyl))carboxamide]: 4950 nM. `Cc1ccc(NC(=O)OCC2(C(=O)NCc3ccccc3Cl)CCOCC2)cc1` [N-[(2-chlorophenyl)methyl](4-{[N-(4-methylphenyl)carbamoyloxy]methyl}(2H-3,4,5,6-tetrahydropyran-4-yl))carboxamide]: the IC50 stood at 697 nM. To `Cc1cccc(F)c1NC(=O)OCC1(C(=O)NCc2ccccc2Cl)CCOCC1` [N-[(2-chlorophenyl)methyl](4-{[N-(6-fluoro-2-methylphenyl)carbamoyloxy]methyl}(2H-3,4,5,6-tetrahydropyran-4-yl))carboxamide] belongs 14200 nM. To `CCc1ccc(NC(=O)OCC2(C(=O)NCc3ccccc3Cl)CCCCC2)cc1` [N-[(2-chlorophenyl)methyl]({[N-(4-ethylphenyl)carbamoyloxy]methyl}cyclohexyl)carboxamide] belongs 238 nM; to `CCc1ccc(NC(=O)OCC2(C(=O)NCc3ccccc3Cl)CC2)cc1` [N-[(2-chlorophenyl)methyl]({[N-(4-ethylphenyl)carbamoyloxy]methyl}cyclopropyl)carboxamide], 3050 nM. The same measure for `CCc1ccc(NC(=O)NC(C)(C)C(=O)NCc2ccccc2Cl)cc1` [N-[(2-chlorophenyl)methyl]-2-{[(4-ethylphenyl)amino]carbonylamino}-2-methylpropanamide]: 13600 nM. For the compound `CCc1ccc(NC(=O)OCC(C)(C)C(=O)NCc2ccccc2Cl)cc1` [N-[(2-chlorophenyl)methyl]-3-[N-(4-ethylphenyl)carbamoyloxy]-2,2-dimethylpropanamide], the IC50 was determined as 2510 nM.

In the case of `CCc1ccc(NC(=O)OCC(C)(NC(=O)CO)C(=O)NCc2ccccc2Cl)cc1` (stereo not drawn) [N-[(2-chlorophenyl)methyl]-3-[N-(4-ethylphenyl)carbamoyloxy]-2-(2-hydroxyacetylamino)-2-methylpropanamide], the IC50 turned out to be 9180 nM.

These data come from patent US8071625B2, “Certain chemical entities, compositions, and methods” (Cytokinetics, Inc., priority 2006, dated 2011).
